Here are results for 1 compound from patent US10434075B2, “FKBP52 specific androgen receptor inhibitor, MJC13, for use in treating breast cancer” (THE BOARD OF REGENTS OF THE UNIVERSITY OF TEXAS SYSTEM, priority 2016, dated 2019).

Assay [1] has as its system human prostate cancer cell lines. Particulars: variety of human prostate cancer cell lines; cited from earlier work.
For assay [2], the system named is MCF-7 breast cancer cells. Description: E2-induced proliferation in MCF-7 breast cancer cells. In kind it is cell-based. Particulars: FIG. 1.
Assay [3] relates to AR. Particulars: variety of human prostate cancer cell lines; cited from earlier work.
Assay [4] relates to prostate cancer xenograft. Particulars: prostate cancer xenograft model, preclinical studies; cited from earlier work.
Assay [5] concerns the target T1, β-catenin interaction with AR (Homo sapiens, UniProt P10275).
T1 sequence (P10275 1-920): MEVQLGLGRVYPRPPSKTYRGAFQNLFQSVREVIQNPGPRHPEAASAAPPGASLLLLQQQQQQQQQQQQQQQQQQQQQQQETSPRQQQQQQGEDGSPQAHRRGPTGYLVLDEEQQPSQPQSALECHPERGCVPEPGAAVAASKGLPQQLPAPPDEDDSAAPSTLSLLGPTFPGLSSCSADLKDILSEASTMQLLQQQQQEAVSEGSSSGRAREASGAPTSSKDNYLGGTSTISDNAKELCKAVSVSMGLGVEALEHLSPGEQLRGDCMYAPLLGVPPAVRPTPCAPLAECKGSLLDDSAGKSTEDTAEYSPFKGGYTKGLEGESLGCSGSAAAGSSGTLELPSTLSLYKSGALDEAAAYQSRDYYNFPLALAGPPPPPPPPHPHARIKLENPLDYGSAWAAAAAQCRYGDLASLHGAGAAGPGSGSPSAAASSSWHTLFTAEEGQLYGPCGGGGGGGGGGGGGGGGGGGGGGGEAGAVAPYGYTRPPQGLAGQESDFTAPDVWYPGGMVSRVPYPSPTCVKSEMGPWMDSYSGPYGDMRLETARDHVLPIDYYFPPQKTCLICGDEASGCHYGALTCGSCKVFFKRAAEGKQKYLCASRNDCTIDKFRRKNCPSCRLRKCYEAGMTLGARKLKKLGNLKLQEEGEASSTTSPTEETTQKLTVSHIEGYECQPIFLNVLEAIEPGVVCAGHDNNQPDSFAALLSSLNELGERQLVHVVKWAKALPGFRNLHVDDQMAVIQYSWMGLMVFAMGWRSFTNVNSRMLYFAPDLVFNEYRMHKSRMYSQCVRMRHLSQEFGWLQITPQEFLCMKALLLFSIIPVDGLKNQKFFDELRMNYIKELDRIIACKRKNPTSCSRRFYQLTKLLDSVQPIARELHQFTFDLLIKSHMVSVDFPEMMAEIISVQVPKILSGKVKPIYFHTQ
Description: β-catenin interaction with AR. Particulars: MJC13 targeting to the AR BF3 surface; prostate cancer cells.

For assay [6], the system named is AR. Particulars: binding AR BF3 surface; FKBP52-receptor complex prevented from dissociating; cited from earlier work.
Assay [7] relates to tamoxifen-resistant MCF-7 breast cancer cells. The assay is described as follows: Proliferation in tamoxifen-resistant MCF-7 breast cancer cells. In kind it is cell-based. Particulars: no difference in AR expression levels, FIG. 2.
Assay [8] has as its system ER. Description: E2-induced ER chromatin binding / ER recruitment to E2-dependent promoters. In kind it is cell-based. Particulars: FIG. 3.

Entries after “also recorded” stand apart in the source; their conditions may differ.

For `O=C(Nc1cccc(Cl)c1Cl)C1CCCCC1` [MJC13], in assay [1], the “AR-dependent cancer cell proliferation” value is “effectively block”. Moreover, the E2-induced proliferation entry in assay [2] was “inhibits E2-induced proliferation; also recorded: effective inhibitor of E2-induced BC cell proliferation”. Besides, the AR signaling result in assay [3] is on record as “effectively block AR signaling”. For the same compound, in assay [4], the tumor growth result is “impressive effects on tumor growth”. In addition, the “β-catenin interaction with AR” value in assay [5] is “abrogates β-catenin interaction with AR”. In assay [6], the AR cellular localisation entry is given as “retention of AR in the cytoplasm”. The cell proliferation result in assay [7] is recorded as “effectively inhibits cell proliferation”. Also, the “E2-induced ER chromatin binding” value in assay [8] is recorded as “significantly decreases E2-induced ER chromatin binding; also recorded: affects ER recruitment to E2-dependent promoters”.
